Source: ChEMBL document CHEMBL1135974 (J Med Chem, 2002)
Each block holds one compound with its values, some of them ahead of it. Active and inactive are the calls of the source. No cut-off for these calls is given here.

Tests used:
D(3) dopamine receptor [1] = biological target: T1, D(3) dopamine receptor (Homo sapiens, UniProt P35462); conditions: Cricetulus griseus; CHO
D(3) dopamine receptor [2] = biological target: T1, D(3) dopamine receptor; test: Rate of [3H]thymidine uptake compared to quinpirole (100%) in Dopamine receptor D3 expressing CHO cells; assay type: functional, cell-based; conditions: Cricetulus griseus
D(3) dopamine receptor [3] = biological target: T1, D(3) dopamine receptor; conditions: Cricetulus griseus; CHO; remark: listed apart in the source
[4] = biological target: Adrenergic receptor alpha-1 (Sus scrofa); test: […] from porcine Alpha-1 adrenergic receptor; assay type: protein assay
D(4) dopamine receptor = biological target: T2, D(4) dopamine receptor (Homo sapiens, UniProt P21917)
T2 sequence (P21917 whole entry): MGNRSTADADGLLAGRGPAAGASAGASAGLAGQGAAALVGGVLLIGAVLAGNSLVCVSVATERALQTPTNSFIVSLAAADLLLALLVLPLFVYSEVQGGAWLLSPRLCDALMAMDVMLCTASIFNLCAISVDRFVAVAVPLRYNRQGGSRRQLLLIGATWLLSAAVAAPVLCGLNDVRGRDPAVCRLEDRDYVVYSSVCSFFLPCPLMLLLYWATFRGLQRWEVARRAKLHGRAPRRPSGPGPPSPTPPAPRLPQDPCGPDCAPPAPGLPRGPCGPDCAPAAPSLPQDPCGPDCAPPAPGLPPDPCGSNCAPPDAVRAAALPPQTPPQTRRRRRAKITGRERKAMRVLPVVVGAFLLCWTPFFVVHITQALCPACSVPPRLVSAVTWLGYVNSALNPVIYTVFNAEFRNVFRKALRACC
Description: Binding affinity for human Dopamine receptor D4 by [3H]- spiperone displacement.

D(2) dopamine receptor [5] = biological target: T3, D(2) dopamine receptor (Homo sapiens, UniProt P14416)
Description: Binding affinity for human Dopamine receptor D2 (long) by [3H]- spiperone displacement.

D(2) dopamine receptor [6] = biological target: T3, D(2) dopamine receptor; remark: listed apart in the source
Description: Binding affinity for human Dopamine receptor D2 (short) by [3H]- spiperone displacement.

D(3) dopamine receptor [7] = biological target: T1, D(3) dopamine receptor
Description: Binding affinity for human Dopamine receptor D3 by [3H]- spiperone displacement.

[8] = biological target: 5-HT2 receptor (Sus scrofa); test: Binding affinity for porcine 5-hydroxytryptamine 2 receptor using [3H]- ketanserin

T1 sequence (P35462 whole entry): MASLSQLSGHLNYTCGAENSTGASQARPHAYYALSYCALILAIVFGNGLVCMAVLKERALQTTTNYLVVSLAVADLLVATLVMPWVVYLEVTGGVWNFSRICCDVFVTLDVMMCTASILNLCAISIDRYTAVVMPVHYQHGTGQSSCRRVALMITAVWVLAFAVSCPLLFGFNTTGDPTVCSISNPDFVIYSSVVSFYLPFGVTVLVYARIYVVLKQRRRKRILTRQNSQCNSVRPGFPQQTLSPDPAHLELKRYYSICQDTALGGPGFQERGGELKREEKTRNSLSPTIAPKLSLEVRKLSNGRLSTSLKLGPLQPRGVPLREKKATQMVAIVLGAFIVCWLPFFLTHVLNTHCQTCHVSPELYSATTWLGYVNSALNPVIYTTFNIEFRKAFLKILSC
T3 sequence (P14416 whole entry): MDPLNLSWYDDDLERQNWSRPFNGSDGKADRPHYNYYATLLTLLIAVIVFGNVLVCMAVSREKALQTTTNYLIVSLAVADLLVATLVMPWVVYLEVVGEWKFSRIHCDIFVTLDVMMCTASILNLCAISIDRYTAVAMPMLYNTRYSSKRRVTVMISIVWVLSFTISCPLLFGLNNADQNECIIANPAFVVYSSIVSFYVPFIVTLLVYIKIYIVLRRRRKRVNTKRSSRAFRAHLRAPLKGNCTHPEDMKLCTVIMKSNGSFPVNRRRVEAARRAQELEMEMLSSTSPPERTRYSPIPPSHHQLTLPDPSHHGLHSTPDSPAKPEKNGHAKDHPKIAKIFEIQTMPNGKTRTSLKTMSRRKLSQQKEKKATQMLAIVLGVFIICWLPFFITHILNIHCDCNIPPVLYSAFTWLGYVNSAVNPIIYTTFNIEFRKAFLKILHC

SMILES: COc1ccccc1N1CCN(CCCCNC(=O)c2cc3ccccc3[te]2)CC1
NE (D(3) dopamine receptor [1]): inactive

SMILES: O=C(NCCCCN1CCN(c2cccc(Cl)c2Cl)CC1)c1cc2ccccc2o1
Effect (D(3) dopamine receptor [3]): inactive

SMILES: O=C(NCCCCN1CCN(c2cccc(Cl)c2Cl)CC1)c1cc2ccccc2[te]1
Ki [4]: > 1000 nM | Ki (D(4) dopamine receptor): 150 nM | Ki (D(2) dopamine receptor [5]): 91 nM | Ki (D(2) dopamine receptor [6]): 48 nM | Ki (D(3) dopamine receptor [7]): 0.55 nM | NE (D(3) dopamine receptor [1]): inactive | Ki [8]: 730 nM

Second part, the compound after the results:

Effect (D(3) dopamine receptor [2]): 52%
SMILES: COc1ccccc1N1CCN(CCCCNC(=O)c2cc3ccccn3n2)CC1

NE (D(3) dopamine receptor [1]): inactive
SMILES: O=C(NCCCCN1CCN(c2cccc(Cl)c2Cl)CC1)c1cc2ccccc2s1
